Experimental data from ChEMBL document CHEMBL1143452, “Synthesis and biological evaluation of 1-amino-1,1-bisphosphonates derived from fatty acids against Trypanosoma cruzi targeting farnesyl pyrophosphate synthase” (Bioorg Med Chem Lett, 2005).

Tests used:
Trypanosoma cruzi [1] = assay: Inhibitory concentration against growth of Trypanosoma cruzi amastigotes; format: functional, organism-based
Trypanosoma cruzi [2] = assay: Inhibitory concentration against growth of Trypanosoma cruzi epimastigotes; format: functional, organism-based

Compound	IC50 (Trypanosoma cruzi [1]) [µM]	IC50 (Trypanosoma cruzi [2]) [µM]
CCCC(N)(P(=O)(O)O)P(=O)(O)O	> 85	> 100
CCCCC(N)(P(=O)(O)O)P(=O)(O)O	> 85	> 100
CCC(N)(P(=O)(O)O)P(=O)(O)O	> 85	> 100
CCCCCC(N)(P(=O)(O)O)P(=O)(O)O	77	> 100
CC(N)(P(=O)(O)O)P(=O)(O)O	> 100	> 100
CCCCCCC(N)(P(=O)(O)O)P(=O)(O)O	72	> 100
